Data published in ChEMBL document CHEMBL6182857, “Targeting biofilm formation in Candida albicans with halogenated pyrrolopyrimidine derivatives” (Eur J Med Chem, 2025).
Active and inactive are the calls of the source. The calls are words filed in the database; no cut-off is given here.

What was measured:
Candida albicans [1] = test: Antibiofilm activity against fluconazole-resistant Candida albicans DAY185 assessed as inhibition of biofilm formation at 50 ug/ml measured after 24 hrs by crystal violet staining based analysis relative to control; format: functional
Candida albicans [2] = test: Antibiofilm activity against fluconazole-resistant Candida albicans DAY185 assessed as inhibition of biofilm formation at 20 ug/ml measured after 24 hrs by crystal violet staining based analysis relative to control; format: functional
Candida albicans [3] = test: Antibiofilm activity against fluconazole-resistant Candida albicans DAY185 assessed as inhibition of biofilm formation at 10 to 20 ug/ml measured after 24 hrs by 2D/3D imaging analysis relative to control; format: functional; settings: dose 10-20 µg/ml
Candida albicans [4] = test: Inhibition of yeast to hypha transition in fluconazole-resistant Candida albicans DAY185 assessed as decrease in cell aggregation at 10 to 20 ug/ml measured after 24 hrs by SEM analysis; format: functional, organism-based; settings: dose 10-20 µg/ml
Candida albicans [5] = test: Inhibition of yeast to hypha transition in fluconazole-resistant Candida albicans DAY185 assessed as decrease in germ tube formation at 10 to 20 ug/ml measured after 24 hrs by SEM analysis; format: functional, organism-based; settings: dose 10-20 µg/ml
Candida albicans [6] = test: Inhibition of yeast to hypha transition in fluconazole-resistant Candida albicans DAY185 assessed as decrease in filamentous growth at 10 to 20 ug/ml measured after 24 hrs by SEM analysis; format: functional, organism-based; settings: dose 10-20 µg/ml
Candida albicans [7] = test: Inhibition of yeast to hypha transition in fluconazole-resistant Candida albicans DAY185 assessed as decrease in hyphal growth at 5 to 20 ug/ml measured after 24 hrs by SEM analysis; format: functional, organism-based; settings: dose 5-20 µg/ml
Candida albicans [8] = test: Inhibition of yeast to hypha transition in fluconazole-resistant Candida albicans DAY185 assessed as decrease in hyphal adhesion at 5 to 20 ug/ml measured after 24 hrs by SEM analysis; format: functional, organism-based; settings: dose 5-20 µg/ml
Candida albicans [9] = test: Downregulation of ALS3 mRNA level in fluconazole-resistant Candida albicans DAY185 assessed as fold decrease at 50 ug/ml incubated for 6 hrs by qRT-PCR analysis relative to control; format: functional; settings: dose 50.0 µg/ml
Candida albicans [10] = test: Downregulation of HWP1 mRNA level in fluconazole-resistant Candida albicans DAY185 assessed as fold decrease at 50 ug/ml incubated for 6 hrs by qRT-PCR analysis relative to control; format: functional; settings: dose 50.0 µg/ml
Candida albicans [11] = test: Upregulation of YWP1 mRNA level in fluconazole-resistant Candida albicans DAY185 assessed as fold increase at 50 ug/ml incubated for 6 hrs by qRT-PCR analysis relative to control; format: functional; settings: dose 50.0 µg/ml
Candida albicans [12] = test: Downregulation of ECE1 mRNA level in fluconazole-resistant Candida albicans DAY185 assessed as fold decrease at 50 ug/ml incubated for 6 hrs by qRT-PCR analysis relative to control; format: functional; settings: dose 50.0 µg/ml
Candida albicans [13] = test: Downregulation of UME6 mRNA level in fluconazole-resistant Candida albicans DAY185 assessed as fold decrease at 50 ug/ml incubated for 6 hrs by qRT-PCR analysis relative to control; format: functional; settings: dose 50.0 µg/ml
Candida albicans [14] = test: Upregulation of CDR11 mRNA level in fluconazole-resistant Candida albicans DAY185 assessed as fold increase at 50 ug/ml incubated for 6 hrs by qRT-PCR analysis relative to control; format: functional; settings: dose 50.0 µg/ml
Brassica rapa = test: Toxicity in Brassica rapa assessed as seed germination rate at 10 to 100 ug/ml treated for 4 days relative to control; format: organism-based; settings: in vivo, 96 h, at 10 to 100 µg/mL, dose 10-100 µg/ml, time 4 day
[15] = Toxicity in Caenorhabditis elegans assessed as nematode survival at 100 ug/ml treated for 7 days; settings: 168 h, dose 100 µg/ml, time 7 day
Candida albicans [16] = test: Antibiofilm activity against fluconazole-resistant Candida albicans DAY185 assessed as inhibition of biofilm formation on bio-compatible PLGA surface coated with compound at 10 to 20 ug/ml incubated for 24 hrs by CLSM analysis; format: functional, organism-based; settings: dose 10-20 µg/ml
Candida albicans [17] = test: Antibiofilm activity against fluconazole-resistant Candida albicans DAY185 assessed as reduction in biofilm thickness on bio-compatible PLGA surface coated with compound at 10 to 20 ug/ml incubated for 24 hrs by CLSM analysis; format: functional, organism-based; settings: dose 10-20 µg/ml
Candida albicans [18] = test: Antibiofilm activity against fluconazole-resistant Candida albicans DAY185 assessed as reduction in overall biofilm mass on bio-compatible PLGA surface coated with compound at 10 to 20 ug/ml incubated for 24 hrs by CLSM analysis; format: functional, organism-based; settings: dose 10-20 µg/ml
Candida albicans [19] = test: Antibiofilm activity against fluconazole-resistant Candida albicans DAY185 assessed as reduction in biofilm mass on bio-compatible PLGA surface coated with compound incubated for 24 hrs by COMSTAT analysis; format: functional, organism-based
Candida albicans [20] = test: Antibiofilm activity against fluconazole-resistant Candida albicans DAY185 assessed as reduction in mean biofilm thickness on bio-compatible PLGA surface coated with compound incubated for 24 hrs by COMSTAT analysis; format: functional, organism-based
Candida albicans [21] = test: Antibiofilm activity against fluconazole-resistant Candida albicans DAY185 assessed as reduction in substratum coverage on bio-compatible PLGA surface coated with compound at 20 ug/ml incubated for 24 hrs by COMSTAT analysis; format: functional, organism-based; settings: dose 20.0 µg/ml
Candida albicans [22] = test: Additive antibiofilm activity against fluconazole-resistant Candida albicans DAY185 assessed as inhibition of biofilm formation at 10 ug/ml measured after 24 hrs in presence of AMB by crystal violet staining based analysis relative to control; format: functional, organism-based; settings: dose 10.0 µg/ml
Candida albicans [23] = test: Antibiofilm activity against Candida albicans ATCC 10231 assessed as inhibition of biofilm formation by crystal violet staining based analysis; format: functional, organism-based
Candida albicans [24] = test: Additive antibiofilm activity against fluconazole-resistant Candida albicans DAY185 assessed as inhibition of biofilm formation at 10 ug/ml measured after 24 hrs in presence of BTZ by crystal violet staining based analysis relative to control; format: functional, organism-based; settings: dose 10.0 µg/ml
Candida albicans [25] = test: Antibiofilm activity against Candida albicans KCCM 12552 assessed as inhibition of biofilm formation by crystal violet staining based analysis; format: functional, organism-based
[Candida] auris [26] = Antibiofilm activity against Candida auris KCTC 17809 assessed as inhibition of biofilm formation by crystal violet staining based analysis; format: functional, organism-based; settings: Candidozyma auris
[Candida] auris [27] = Antibiofilm activity against Candida auris KCTC 17810 assessed as inhibition of biofilm formation by crystal violet staining based analysis; format: functional, organism-based; settings: Candidozyma auris
Candida albicans [28] = test: Antibiofilm activity against fluconazole-resistant Candida albicans DAY185 assessed as inhibition of biofilm formation at 1 ug/ml measured after 24 hrs by crystal violet staining based analysis relative to control; format: functional
Candida albicans [29] = test: Antibiofilm activity against fluconazole-resistant Candida albicans DAY185 assessed as inhibition of biofilm formation at 5 ug/ml measured after 24 hrs by crystal violet staining based analysis relative to control; format: functional, organism-based; settings: dose 5.0 µg/ml

Structure (SMILES): Clc1ncnc2[nH]cc(I)c12
- inhibition at 50 µg/mL (Candida albicans [1]): > 95%
- inhibition at 20 µg/mL (Candida albicans [2]): > 85%
- inhibition (Candida albicans [3]): Active; Significant Effect Was Observed At 20 Ug/Ml
- inhibition (Candida albicans [4]): Active
- inhibition (Candida albicans [5]): Active
- inhibition (Candida albicans [6]): Active
- inhibition (Candida albicans [7]): Active
- inhibition (Candida albicans [8]): Active
- fold change (FC) (Candida albicans [9]): 145
- fold change (FC) (Candida albicans [10]): 55
- fold change (FC) (Candida albicans [11]): 14
- fold change (FC) (Candida albicans [12]): 267
- fold change (FC) (Candida albicans [13]): 15
- fold change (FC) (Candida albicans [14]): 13
- Activity (Brassica rapa): > 90%
- Activity [15]: Toxic
- inhibition (Candida albicans [16]): Active
- Activity (Candida albicans [17]): Active; More Pronounced Effects Were Observed At Higher Concentration
- Activity (Candida albicans [18]): Active; More Pronounced Effects Were Observed At Higher Concentration
- Activity (Candida albicans [19]): Dose-dependent-effect; Nearly Undetectable Levels Were Observed At 20 Ug/Ml
- Activity (Candida albicans [20]): Dose-dependent-effect; Nearly Undetectable Levels Were Observed At 20 Ug/Ml
- Activity (Candida albicans [21]): Active
- inhibition (Candida albicans [22]): Active
- inhibition (Candida albicans [23]): Dose-dependent-effect
- inhibition (Candida albicans [24]): Active
- inhibition (Candida albicans [25]): Dose-dependent-effect
- inhibition ([Candida] auris [26]): Dose-dependent-effect
- inhibition ([Candida] auris [27]): Dose-dependent-effect

Structure (SMILES): Clc1c[nH]c2ncnc(Cl)c12
- inhibition at 50 µg/mL (Candida albicans [1]): > 85%

Structure (SMILES): Clc1ccc(CCC(Cn2ccnc2)Sc2c(Cl)cccc2Cl)cc1 (centres undefined) [BUTOCONAZOLE]
- inhibition at 1 µg/mL (Candida albicans [28]): 56%
- inhibition (Candida albicans [29]): Active

Structure (SMILES): CC(=O)N1CCN(c2ccc(OCC3COC(Cn4ccnc4)(c4ccc(Cl)cc4Cl)O3)cc2)CC1 (centres undefined) [KETOCONAZOLE]
- inhibition at 1 µg/mL (Candida albicans [28]): < 12%

Structure (SMILES): Clc1nc(Cl)c2c(Br)c[nH]c2n1
- inhibition at 50 µg/mL (Candida albicans [1]): > 95%
- inhibition at 20 µg/mL (Candida albicans [2]): > 85%
